Data from US9522914B2, “Azole derivative” (TAISHO PHARMACEUTICAL CO., LTD, priority 2011, dated 2016).

Tests used:
Human V1b receptor [1] = target: T1, Human V1b receptor (Homo sapiens (Human), UniProt P47901); assay: Binding Test for V1b Receptor ([3H]AVP, crude membrane preparation of 293FT cells); conditions: inhibition of [3H]AVP binding (0.4 to 1 nmol/L), room temperature, 60 minutes
Procedure, shortened: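 Crude membranes from 293FT cells transiently expressing human V1b, incubated with [3H]AVP (0.4 to 1 nmol/L) and compound (0.01 nmol/L–1 μmol/L final) in Tris pH 7.4 with MgCl2 and 0.1% BSA, 60 min at room temperature. Bound label collected by filtration. Nonspecific binding defined with unlabeled AVP; IC50 from dose-response curve.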

Human V1b receptor [2] = target: T1, Human V1b receptor; assay: Measurement of V1b Receptor Antagonistic Activity (AVP-induced Fluo-4 fluorescence in CHO cells, FDSS); type: cell-based; conditions: inhibition of the response to AVP 2.5 nmol/L, CHO cells stably expressing human V1b receptor
Procedure: Measurement of V1b Receptor Antagonistic Activity
CHO cells (ATCC) so modified as to express human V1b receptor in a stable manner were cultured in Ham's F-12 medium (containing 10% FBS and 0.5 mg/mL Geneticin). On the day before the test, seeding was conducted at a density of 20,000 cells/well in a 96-well poly-D-lysine coated black plate. On the day of the test, the culture medium was removed, and a loading solution (1×HBSS, 10 mmol/L HEPES, 0.1% bovine serum albumin, 1.25 mmol/L Probenecid, 0.02% Pluronic F-127, 1.5 μmol/L Fluo-4-AM, pH 7.4) was added to each well, followed by incubation in a CO2 incubator for an hour. After the incubation, the loading solution was removed. A test solution (1×HBSS, 10 mmol/L HEPES, 0.1% bovine serum albumin, 1.25 mmol/L Probenecid, pH 7.4) containing any one of test compounds was added to wells, followed by incubation in a CO2 incubator for 30 minutes. The test compound was serially diluted with DMSO so that it would have final concentrations of 0.1 nmol/L to […] at the time of assaying. After the incubation, fluorescence intensity levels were measured and AVP added by means of FDSS (Hamamatsu Photonics K.K.); AVP was added to give a final concentration of 2.5 nmol/L at the time of assaying. […] The fluorescence level in a well to which neither test compound nor AVP was added was defined as 0%, and the fluorescence level in a well to which only AVP was added and no test compound was added was defined as 100%. A dose-response curve was plotted from fluorescence levels after the addition of AVP in the presence of a test compound at various concentrations, and the 50% inhibitory concentration (IC50 value) of the compound was calculated.

T1 sequence (P47901 whole entry): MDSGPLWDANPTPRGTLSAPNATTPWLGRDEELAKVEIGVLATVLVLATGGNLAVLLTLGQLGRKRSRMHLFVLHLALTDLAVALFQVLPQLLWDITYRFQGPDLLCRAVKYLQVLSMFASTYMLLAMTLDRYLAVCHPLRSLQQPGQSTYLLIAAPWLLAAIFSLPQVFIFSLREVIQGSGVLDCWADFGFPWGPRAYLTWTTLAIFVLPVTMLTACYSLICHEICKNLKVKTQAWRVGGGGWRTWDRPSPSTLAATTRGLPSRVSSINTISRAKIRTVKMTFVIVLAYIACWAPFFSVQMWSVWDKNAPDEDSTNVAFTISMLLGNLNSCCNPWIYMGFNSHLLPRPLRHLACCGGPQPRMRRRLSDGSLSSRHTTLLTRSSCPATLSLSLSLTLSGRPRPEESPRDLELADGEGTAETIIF

| Structure (SMILES) | IC50 (Human V1b receptor [1]) [nM] | IC50 (Human V1b receptor [2]) [nM] |
| --- | --- | --- |
| CC(C)NC(=O)Cc1nn(-c2ccc(CCN3CCOCC3)cc2)c(=O)n1-c1cccc(Cl)c1 [Example D-01, 2-[4-(3-chlorophenyl)-1-{4-[2-(morpholin-4-yl)ethyl]phenyl}-5-oxo-4,5-dihydro-1H-1,2,4-triazol-3-yl]-N-(propan-2-yl)acetamide] | 15 | 21 |
| CC(C)NC(=O)Cc1nn(-c2ccc(CC(C)N3C4CCC3COC4)cc2)c(=O)n1-c1cccc(Cl)c1 [Example D-18, 2-[4-(3-chlorophenyl)-1-{4-[2-(3-oxa-8-azabicyclo[3.2.1]oct-8-yl)propyl]phenyl}-5-oxo-4,5-dihydro-1H-1,2,4-triazol-3-yl]-N-(propan-2-yl)acetamide] | 1.5 | 0.65 |
| CC(C)NC(=O)Cc1oc(-c2ccc(CCN3CC4(COC4)C3)cc2)nc1-c1cccc(Cl)c1 [Example C-12, 2-[4-(3-chlorophenyl)-2-{4-[2-(2-oxa-6-azaspiro[3.3]hept-6-yl)ethyl]phenyl}-1,3-oxazol-5-yl]-N-(propan-2-yl)acetamide] | 4.3 | 32 |
| CC(C)NC(=O)Cn1nc(-c2ccc(CCN3CCOCC3)cc2)nc1-c1cccc(Cl)c1 [Example B-02, 2-[5-(3-chlorophenyl)-3-{4-[2-(morpholin-4-yl)ethyl]phenyl}-1H-1,2,4-triazol-1-yl]-N-(propan-2-yl)acetamide] | 2.2 | 10 |
| CC(C)(C)NC(=O)Cc1nn(-c2ccc(CCN3C4CCC3COC4)cc2)c(=O)n1-c1cccc(Cl)c1 [Example D-14, N-tert-butyl-2-[4-(3-chlorophenyl)-1-{4-[2-(3-oxa-8-azabicyclo[3.2.1]oct-8-yl)ethyl]phenyl}-5-oxo-4,5-dihydro-1H-1,2,4-triazol-3-yl]acetamide] | 4.7 | 12 |
| CC(C)(C)NC(=O)Cc1nn(-c2ccc(CCN3CCOCC3)cc2)c(=O)n1-c1cccc(Cl)c1 [Example D-13, N-tert-butyl-2-[4-(3-chlorophenyl)-1-{4-[2-(morpholin-4-yl)ethyl]phenyl}-5-oxo-4,5-dihydro-1H-1,2,4-triazol-3-yl]acetamide] | 3.5 | 13 |
| CC(C)NC(=O)Cn1cc(-c2ccc(CCN3CCOCC3)cc2)nc1-c1cccc(Cl)c1 [Example A-02, 2-[2-(3-chlorophenyl)-4-{4-[2-(morpholin-4-yl)ethyl]phenyl}-1H-imidazol-1-yl]-N-(propan-2-yl)acetamide] | 3.7 | 3.2 |
| COc1cccc(-c2nc(-c3ccc(CCN4C[C@@H](C)O[C@@H](C)C4)cc3)nn2CC(=O)NC(C)C)c1 [Example B-29, 2-[3-(4-{2-[(2R,6S)-2,6-dimethylmorpholin-4-yl]ethyl}phenyl)-5-(3-methoxyphenyl)-1H-1,2,4-triazol-1-yl]-N-(propan-2-yl)acetamide] | 10 to 100 | – |
| CC(C)NC(=O)Cc1nn(-c2ccc(CC(C)N3C4CCC3COC4)cn2)c(=O)n1-c1cccc(Cl)c1 [Example D-34, 2-[4-(3-chlorophenyl)-1-{5-[2-(3-oxa-8-azabicyclo[3.2.1]oct-8-yl)propyl]pyridin-2-yl}-5-oxo-4,5-dihydro-1H-1,2,4-triazol-3-yl]-N-(propan-2-yl)acetamide] | 3.3 | – |
| COc1cccc(-c2nc(-c3ccc(CCN4CCC(N(C)C)CC4)cc3)nn2CC(=O)NC(C)C)c1 [Example B-26, 2-[3-(4-{2-[4-(dimethylamino)piperidin-1-yl]ethyl}phenyl)-5-(3-methoxyphenyl)-1H-1,2,4-triazol-1-yl]-N-(propan-2-yl)acetamide] | 100 to 1000 | – |
| CC(C)NC(=O)Cc1nn(-c2ccc(CCN3CCC(F)(F)CC3)cc2)c(=O)n1-c1cccc(Cl)c1 [Example D-58, 2-[4-(3-chlorophenyl)-1-{4-[2-(4,4-difluoropiperidin-1-yl)ethyl]phenyl}-5-oxo-4,5-dihydro-1H-1,2,4-triazol-3-yl]-N-(propan-2-yl)acetamide] | 10 to 100 | – |
| COc1cc(-c2nc(-c3ccc(CCN4CCOCC4)cn3)nn2CC(=O)NC(C)C)ccc1F [Example B-13, 2-[5-(4-fluoro-3-methoxyphenyl)-3-{5-[2-(morpholin-4-yl)ethyl]pyridin-2-yl}-1H-1,2,4-triazol-1-yl]-N-(propan-2-yl)acetamide] | 8.9 | – |
| COc1cccc(-c2nc(-c3ccc(CCN4CCOCC4)cn3)nn2CC(=O)NC(C)C)c1 [Example B-15, 2-[5-(3-methoxyphenyl)-3-{5-[2-(morpholin-4-yl)ethyl]pyridin-2-yl}-1H-1,2,4-triazol-1-yl]-N-(propan-2-yl)acetamide] | 31 | – |
| COc1cccc(-c2nc(-c3ccc(CCN4CCC(F)CC4)cc3)nn2CC(=O)NC(C)C)c1 [Example B-39, 2-[3-{4-[2-(4-fluoropiperidin-1-yl)ethyl]phenyl}-5-(3-methoxyphenyl)-1H-1,2,4-triazol-1-yl]-N-(propan-2-yl)acetamide] | 10 to 100 | – |
| COc1cccc(-c2nc(-c3ccc(CCN4CC=CCC4)cc3)nn2CC(=O)NC(C)C)c1 [Example B-22, 2-[3-{4-[2-(3,6-dihydropyridin-1(2H)-yl)ethyl]phenyl}-5-(3-methoxyphenyl)-1H-1,2,4-triazol-1-yl]-N-(propan-2-yl)acetamide] | 10 to 100 | – |
| COc1cccc(-c2nc(-c3ccc(CCN4CCOCC4)cc3)cn2CC(=O)NC(C)C)n1 [Example A-29, 2-[2-(6-methoxypyridin-2-yl)-4-{4-[2-(morpholin-4-yl)ethyl]phenyl}-1H-imidazol-1-yl]-N-(propan-2-yl)acetamide] | 27 | – |
| CC(C)NC(=O)Cn1cc(-c2ccc(CCN3CCOCC3)nc2)nc1-c1cccc(Cl)c1 [Example A-30, 2-[2-(3-chlorophenyl)-4-{6-[2-(morpholin-4-yl)ethyl]pyridin-3-yl}-1H-imidazol-1-yl]-N-(propan-2-yl)acetamide] | 21 | – |
| COc1cc(-n2c(CC(=O)NC(C)(C)C)nn(-c3ccc(CCN4CCOCC4)cc3)c2=O)ccc1F [Example D-05, N-tert-butyl-2-[4-(4-fluoro-3-methoxyphenyl)-1-{4-[2-(morpholin-4-yl)ethyl]phenyl}-5-oxo-4,5-dihydro-1H-1,2,4-triazol-3-yl]acetamide] | 2.5 | – |
| COc1cccc(-c2nc(-c3ccc(CCN4CCC(C#N)CC4)cc3)nn2CC(=O)NC(C)C)c1 [Example B-24, 2-[3-{4-[2-(4-cyanopiperidin-1-yl)ethyl]phenyl}-5-(3-methoxyphenyl)-1H-1,2,4-triazol-1-yl]-N-(propan-2-yl)acetamide] | 100 to 1000 | – |
| COC1CCCN(CCc2ccc(-n3nc(CC(=O)NC(C)C)n(-c4cccc(Cl)c4)c3=O)cc2)C1 [Example D-50, 2-[4-(3-chlorophenyl)-1-{4-[2-(3-methoxypiperidin-1-yl)ethyl]phenyl}-5-oxo-4,5-dihydro-1H-1,2,4-triazol-3-yl]-N-(propan-2-yl)acetamide] | 100 to 1000 | – |
